Measured values: US10793536B2, “Vortioxetine pamoic acid salt and crystal form thereof” (SHANGHAI SYNERGY PHARMACEUTICAL SCIENCES CO., LTD, priority 2016, dated 2020)
Where two headings read alike, the source gives them in different places.

Assays:
[1] = Wistar rat, single intramuscular injection 45.6 mg/kg; for AUC(0-t), Mean / AUC(0-∞), Mean / Cmax, Mean / MRT(0-∞), Mean / Tmax, Mean / t1/2z, Mean: non-compartment model
Method: Weighing 75.1 mg of each of crystal forms A, B and D of vortioxetine semi pamoic acid, adding 1 mL diluent (water for Injection containing 1% CMC-Na and 5% mannitol) to each of them, and whirling for 2 min to obtain 3 suspensions (pH˜7) of 3 crystal forms with a concentration of 45.6 mg/mL.
Drugs are administered to 9 male clean Wistar rats (Shanghai Sippr BK Laboratory Animals Ltd) with a weight range of 183.0˜186.3 g in accordance with Table 4.
Collecting blood samples by jugular puncture, about 0.2 mL for each sample, resisting against blood coagulation using heparin sodium, placing the collected blood samples on ice, wherein the blood collecting time is as follows: 30 min, 1 hrs, 2 hrs, 4 hrs, 8 hrs, 24 hrs, 48 hrs, 72 hrs, 120 hrs, 168 hrs, 216 hrs, 264 hrs, 312 hrs, 360 hrs, 504 hrs, and 672 hrs […] after administration of drug; placing the collected blood samples on ice, and separating the blood plasma centrifugally (centrifugal condition: 8,000 revolutions/min, 6 minutes, 2-8° C.); storing the collected blood plasma at −70° C. before analysis.
Separately calculating the pharmacokinetic parameters AUC0-t, AUC0-∞, MRT0-∞, Cmax, Tmax, T1/2 etc. of the tested samples using a non-compartment model for pharmacokinetic calculation software WinNonlin5.2 according to the blood concentration data of the drug. For samples with a concentration lower than the quantitative lower limit, when the pharmacokinetic parameters are calculated, the samples sampled before reaching Cmax should be calculated at zero value; after reaching Cmax, the samples at the sample point should be calculated by “below the limit of quantitation” (BLQ).

[2] = single dose of vortioxetine injected to the body of the rat; FDA pharmacological summary document No. 204447Orig 1s000; cited from earlier work

Structure (SMILES) | Concentration of vortioxetine in plasma, Mean ([1]; blood sampling time 0.5 h) | Concentration of vortioxetine in plasma, Mean ([1]; blood sampling time 1 h) | Concentration of vortioxetine in plasma, Mean ([1]; blood sampling time 2 h) | Concentration of vortioxetine in plasma, Mean ([1]; blood sampling time 4 h) | Concentration of vortioxetine in plasma, Mean ([1]; blood sampling time 8 h) | Concentration of vortioxetine in plasma, Mean ([1]; blood sampling time 24 h) | Concentration of vortioxetine in plasma, Mean ([1]; blood sampling time 48 h) | Concentration of vortioxetine in plasma, Mean ([1]; blood sampling time 72 h) | Concentration of vortioxetine in plasma, Mean ([1]; blood sampling time 120 h) | Concentration of vortioxetine in plasma, Mean ([1]; blood sampling time 168 h) | Concentration of vortioxetine in plasma, Mean ([1]; blood sampling time 216 h) | Concentration of vortioxetine in plasma, Mean ([1]; blood sampling time 264 h) | Concentration of vortioxetine in plasma, Mean ([1]; blood sampling time 312 h) | Concentration of vortioxetine in plasma, Mean ([1]; blood sampling time 360 h) | Concentration of vortioxetine in plasma, Mean ([1]; blood sampling time 504 h) | Concentration of vortioxetine in plasma, Mean ([1]; blood sampling time 672 h) | AUC(0-t), Mean [1] | AUC(0-∞), Mean [1] | Cmax, Mean [1] | MRT(0-∞), Mean [1] | also measured
Cc1ccc(Sc2ccccc2N2CCNCC2)c(C)c1.Cc1ccc(Sc2ccccc2N2CCNCC2)c(C)c1.O=C(O)c1cc2ccccc2c(Cc2c(O)c(C(=O)O)cc3ccccc23)c1O [Crystal form A of vortioxetine semi pamoic acid salt] [Crystal Form a Vortioxetine Semi Pamoic Acid Salt] | 3.12 ng/mL | 5.80 ng/mL | 8.41 ng/mL | 10.75 ng/mL | 16.22 ng/mL | 15.77 ng/mL | 8.70 ng/mL | 11.68 ng/mL | 35.38 ng/mL | 31.34 ng/mL | 13.35 ng/mL | 6.29 ng/mL | 4.07 ng/mL | 2.26 ng/mL | 1.73 ng/mL | 1.88 ng/mL | 6143.08 ng·h/mL | 6503.21 ng·h/mL | 38.18 ng/mL | 227.18 h | Tmax, Mean [1]: 136.00 h; t1/2z, Mean [1]: 126.06 h
Cc1ccc(Sc2ccccc2N2CCNCC2)c(C)c1.Cc1ccc(Sc2ccccc2N2CCNCC2)c(C)c1.O=C(O)c1cc2ccccc2c(Cc2c(O)c(C(=O)O)cc3ccccc23)c1O [Crystal form B of vortioxetine semi pamoic acid salt] [Crystal Form B Vortioxetine Semi Pamoic Acid Salt] | 2.14 ng/mL | 4.56 ng/mL | 10.17 ng/mL | 18.05 ng/mL | 21.12 ng/mL | 17.67 ng/mL | 14.56 ng/mL | 15.65 ng/mL | 32.47 ng/mL | 40.21 ng/mL | 24.00 ng/mL | 15.19 ng/mL | 10.55 ng/mL | 6.02 ng/mL | 2.62 ng/mL | 2.06 ng/mL | 8588.42 ng·h/mL | 8939.49 ng·h/mL | 40.21 ng/mL | 226.30 h | Tmax, Mean [1]: 168 h; t1/2z, Mean [1]: 116.6 h
Cc1ccc(Sc2ccccc2N2CCNCC2)c(C)c1.Cc1ccc(Sc2ccccc2N2CCNCC2)c(C)c1.O=C(O)c1cc2ccccc2c(Cc2c(O)c(C(=O)O)cc3ccccc23)c1O [Crystal form D of vortioxetine semi pamoic acid salt] [Crystal Form D Vortioxetine Semi Pamoic Acid Salt] | 4.34 ng/mL | 8.10 ng/mL | 11.59 ng/mL | 15.37 ng/mL | 23.28 ng/mL | 24.08 ng/mL | 14.11 ng/mL | 19.52 ng/mL | 41.99 ng/mL | 46.20 ng/mL | 16.02 ng/mL | 5.66 ng/mL | 3.66 ng/mL | 2.03 ng/mL | 1.56 ng/mL | 1.69 ng/mL | 7856.57 ng·h/mL | 8392.02 ng·h/mL | 48.65 ng/mL | 162.48 h | Tmax, Mean [1]: 152.00 h; t1/2z, Mean [1]: 228.84 h
Cc1ccc(Sc2ccccc2N2CCNCC2)c(C)c1 [vortioxetine, 1-[2-(2,4-dimethylphenylthiorueaalkyl)phenyl] piperazine] | – | – | – | – | – | – | – | – | – | – | – | – | – | – | – | – | – | – | – | – | half-life period t1/2 [2]: more than two hours
